{
  "source": "patent US20160297851A1",
  "about": "“BROAD SPECTRUM […]” (priority 2012, published 2016)",
  "key": {"[1]": {"tested_on": "P. aeruginosa PAS2006 (SPase P84S)", "assay_type": "cell-based, Pseudomonas aeruginosa"}, "wild type E. coli MG1655": {"tested_on": "wild type E. coli MG1655", "assay": "microbe, parasite or virus in culture", "assay_type": "cell-based, Escherichia coli", "conditions": "Resistant strain (wild type)"}, "wild type S. aureus 8325": {"tested_on": "wild type S. aureus 8325", "assay": "microbe, parasite or virus in culture", "assay_type": "cell-based, Staphylococcus aureus", "conditions": "Resistant strain (wild type)"}, "[2]": {"tested_on": "lepB(P29S) S. aureus 8325", "assay": "microbe, parasite or virus in culture", "assay_type": "cell-based, Staphylococcus aureus", "conditions": "Sensitive (genetically sensitized) strain"}, "[3]": {"tested_on": "spsB(S29P) S. epidermidis RP62A", "assay": "microbe, parasite or virus in culture", "assay_type": "cell-based, Staphylococcus epidermidis"}, "[4]": {"tested_on": "E. coli PAS0232 (SPase P84S)", "assay_type": "cell-based, Escherichia coli"}, "[5]": {"tested_on": "S. epidermidis PAS9002 (SPase S31P)", "assay_type": "cell-based, Staphylococcus epidermidis"}, "[6]": {"tested_on": "wild type P. aeruginosa PAO1", "assay": "microbe, parasite or virus in culture", "assay_type": "cell-based, Pseudomonas aeruginosa", "conditions": "Resistant strain (wild type)"}, "[7]": {"tested_on": "wild type S. epidermidis RP62A", "assay": "microbe, parasite or virus in culture", "assay_type": "cell-based, Staphylococcus epidermidis", "conditions": "Sensitive strain (SPase without the resistance-conferring Pro)"}},
  "data": [
    {"substance": "arylomycin C16", "values": [
      {"measurement": "MIC", "setting": "[1]", "value": 8, "unit": "mg/L"},
      {"measurement": "MIC", "setting": "wild type E. coli MG1655", "value": ">128", "unit": "mg/L"},
      {"measurement": "MIC", "setting": "wild type S. aureus 8325", "value": ">128", "unit": "mg/L"},
      {"measurement": "MIC", "setting": "[2]", "value": 2, "unit": "mg/L"},
      {"measurement": "MIC", "setting": "[3]", "value": 8, "unit": "mg/L"},
      {"measurement": "MIC", "setting": "[4]", "value": 2, "unit": "mg/L"},
      {"measurement": "MIC", "setting": "[5]", "value": ">128", "unit": "mg/L"},
      {"measurement": "MIC", "setting": "[6]", "value": ">128", "unit": "mg/L"},
      {"measurement": "MIC", "setting": "[7]", "value": 0.25, "unit": "mg/L"}
    ]}
  ]
}
